# Measurements from PubChem BioAssay (NCI).
#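 Five concentrations, 48 hours, 96-well plates. At the TGI there is no net growth.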
# Key:
# Assay in all cases: growth of human tumour cells (NCI), 48 h
# ACHN renal = tested on: ACHN renal
# NCI-H460 lung = tested on: NCI-H460 lung
# A549 NSCLC = tested on: A549 NSCLC
# UACC-257 melanoma = tested on: UACC-257 melanoma
# RPMI-8226 leukemia = tested on: RPMI-8226 leukemia
# HCC-2998 colon = tested on: HCC-2998 colon
# BT-549 breast = tested on: BT-549 breast
# 786-0 renal = tested on: 786-0 renal
# SK-MEL-28 melanoma = tested on: SK-MEL-28 melanoma
# K-562 leukemia = tested on: K-562 leukemia
# SK-MEL-5 melanoma = tested on: SK-MEL-5 melanoma
SMILES,TGI (ACHN renal) [µM],TGI (NCI-H460 lung) [µM],TGI (A549 NSCLC) [µM],TGI (UACC-257 melanoma) [µM],TGI (RPMI-8226 leukemia) [µM],TGI (HCC-2998 colon) [µM],TGI (BT-549 breast) [µM],TGI (786-0 renal) [µM],TGI (SK-MEL-28 melanoma) [µM],TGI (K-562 leukemia) [µM],TGI (SK-MEL-5 melanoma) [µM]
O=C1CC(O)c2c(Br)sc(Br)c21 (configuration not stated),29.7,34.8,43.4,17.4,11.8,18,63.1,14.8,30.1,8.3,34.5
COc1ccc(C[C@H](N)C(=O)NC2C(CO)OC(n3cnc4c(N(C)C)ncnc43)C2O)cc1 (some centres not stated),–,1.15,2.55,1.67,1.3,1.01,–,–,0.481,1.16,0.847
CC(=O)Nc1ccc(NC(=O)c2c(Cl)c(Cl)c(Cl)c(Cl)c2-c2nc3ccccc3[nH]2)cc1,> 100,> 100,> 100,> 100,71,> 100,> 100,> 100,> 100,> 100,> 100
Nc1nc(N)c2c(n1)NC(=O)c1c(c3ccccc3n1Cc1ccc(Cl)cc1)C2,–,36.8,62.6,> 100,–,34.4,49.2,–,> 100,> 100,28.6
CC(C)c1cc(CN(C)C)c(O)c(C(C)(C)C)c1,32.3,32.3,53.1,29.2,32.3,29.6,> 100,32.5,69.3,–,29.9
C=CC[N+]12CN3CN(CN(C3)C1)C2,46,54.7,> 100,61.7,39,55.8,61.3,–,55.5,> 100,> 100
N=C(c1ccc2ccccc2c1)c1ccccc1Cc1ccccc1,> 100,> 100,> 100,> 100,> 100,> 100,> 100,> 100,> 100,> 100,> 100
CC(C)(C)c1cc(C2NCCO2)cc(C(C)(C)C)c1O (configuration not stated),> 100,> 100,–,> 100,> 100,–,> 100,> 100,> 100,> 100,> 100
NC(=O)C(N)=O,> 100,> 100,> 100,> 100,> 100,> 100,–,> 100,> 100,> 100,> 100
CCOC(=O)C12CCC(=O)C=C1[C@@H](C)C(=O)CC2 (some centres not stated),> 100,> 100,–,> 100,> 100,> 100,–,–,> 100,–,> 100
COc1ccc(-c2c(=O)[nH]n3c(=S)nc(-c4ccccc4)[nH]c23)cc1OC,51.1,> 100,> 100,61.1,–,36.1,37.6,33.9,54.7,95,30.1
COc1cc(NC(C)=O)ccc1C(=O)N/N=C/c1ccc(Cl)cc1Cl,> 100,–,> 100,70.9,> 100,> 100,> 100,64.4,> 100,> 100,> 100
CC(C)(C)N1C(C(=O)c2ccccc2)C1c1ccccc1 (configuration not stated),–,> 100,> 100,> 100,> 100,> 100,–,–,> 100,> 100,> 100
C#CCOc1c(C(=O)OCC)c(=O)n(C)c2ccccc12,> 100,> 100,–,–,> 100,–,–,–,> 100,> 100,> 100
O=C(CNc1cccc([N+](=O)[O-])c1)Nn1c(-c2ccccc2)nc2ccccc2c1=O,3.34,–,4.9,11.8,3.36,2.81,> 100,–,3.04,–,2.31
